Test results taken from PubChem BioAssay (NCI).
Where “and” joins values, the source holds several entries; their conditions need not be identical. Equal values may be shown once.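 Compound exposure: 48 hours, 5 concentrations, 96-well plates. GI50 is the concentration that inhibits growth by half. Definition used: TGI = concentration required for complete inhibition of growth.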

Assays:
Assay in all cases: inhibition of tumour cell growth, NCI panel, 48 h
HOP-62 NSCLC = system: HOP-62 NSCLC
IGROV1 ovarian = system: IGROV1 ovarian
MALME-3M melanoma = system: MALME-3M melanoma
MOLT-4 leukemia = system: MOLT-4 leukemia
OVCAR-3 ovarian = system: OVCAR-3 ovarian
OVCAR-8 ovarian = system: OVCAR-8 ovarian
RPMI-8226 leukemia = system: RPMI-8226 leukemia
SK-MEL-5 melanoma = system: SK-MEL-5 melanoma
SR leukemia = system: SR leukemia
HS 578T breast = system: HS 578T breast

Structure (SMILES) | TGI (HOP-62 NSCLC) [µM] | TGI (IGROV1 ovarian) [µM] | TGI (MALME-3M melanoma) [µM] | TGI (MOLT-4 leukemia) [µM] | TGI (OVCAR-3 ovarian) | TGI (OVCAR-8 ovarian) [µM] | TGI (RPMI-8226 leukemia) [µM] | TGI (SK-MEL-5 melanoma) | TGI (SR leukemia) [µM] | GI50 (IGROV1 ovarian) [µM] | GI50 (MALME-3M melanoma) [µM] | GI50 (MOLT-4 leukemia) | GI50 (OVCAR-3 ovarian) | GI50 (OVCAR-8 ovarian) [µM] | GI50 (RPMI-8226 leukemia) [µM] | GI50 (SK-MEL-5 melanoma) | GI50 (SR leukemia) [µM] | GI50 (HOP-62 NSCLC) [µM] | GI50 (HS 578T breast) | TGI (HS 578T breast)
CC(C)N(C(=O)C12C3C4C1(I)C1C2C3(I)C41C(=O)N(C(C)C)C(C)C)C(C)C (centres undefined) | > 100 | > 100 | > 100 | > 100 | > 100 µM | > 100 | > 72.5 | > 100 µM | – | – | – | – | – | – | – | – | – | – | – | –
O=P1(c2ccccc2)CCCCC1 | > 100 | > 100 | > 100 | > 100 | > 100 µM | > 100 | > 100 | > 100 µM | > 100 | – | – | – | – | – | – | – | – | – | – | –
CC1COC(C)(C)P(=O)(c2ccccc2)C1 (centres undefined) | > 100 | > 100 | > 100 | > 100 | > 100 µM | > 100 | > 100 | > 100 µM | > 100 | – | – | – | – | – | – | – | – | – | – | –
CC(=O)[O][Ga]([Br])[O]C(C)=O | – | > 100 | > 100 | > 100 | > 100 µM | > 100 | > 100 | > 100 µM | > 100 | > 100 | > 100 | > 100 µM | > 100 µM | > 100 | > 100 | > 100 µM | > 100 | – | – | –
S=c1[nH]c(=S)c2nnn(-c3ccccc3)c2[nH]1 | > 100 | > 100 | > 100 | > 100 | > 100 µM | > 100 | > 100 | > 100 µM | > 100 | – | – | – | – | – | – | – | – | – | – | –
O=C1c2ccccc2-c2c1c1ccccc1c(=O)n2CCCCl | 6.57 | – | – | 4.38 | 8.18 µM | 44.8 | > 100 | > 100 µM | – | – | – | 1.61 µM | 3.23 µM | 9.28 | 61.7 | 5.92 µM | – | 1.77 | 17.6 µM | 73.5 µM
CC(C)C(=O)Nc1nc2c(ncn2C2OC(CO)C(O)C2O)c(=O)[nH]1 (centres undefined) | > 100 | > 100 | > 100 | > 100 | > 100 µM | > 100 | > 100 | > 100 µM | > 100 | – | – | – | – | – | – | – | – | – | – | –
COC(=O)[C@H]1C=C[C@@H](C)n2c(=O)c3cc4ccccc4cc3c(=O)n21 | > 100 | > 100 | > 100 | > 100 | > 100 µM | > 100 | > 100 | > 100 µM | > 100 | – | – | – | – | – | – | – | – | – | – | –
Cc1ccc(C)c(N=C2NC(=O)C(CC(=O)Nc3ccc(Cl)cc3Cl)S2)c1 (centres undefined) | > 100 | > 100 | > 100 | > 100 | > 100 µM | > 100 | > 100 | > 100 µM | – | – | – | – | – | – | – | – | – | – | – | –
COC(=O)/C=C1\CCC(C)O1 (centres undefined) | > 100 | > 100 | > 100 | > 100 | > 100 µM | > 100 | > 100 | > 100 µM | – | – | – | – | – | – | – | – | – | – | – | –
O=C(O)CC(NC(=O)CP(=O)(O)O)C(=O)O (centres undefined) | 3760 | > 8280 | > 8470 | 6910 | > 10000 µM | > 8110 | > 10000 | > 10000 µM | – | – | – | – | – | – | – | – | – | – | 74.5 µM | > 10000 µM
CC(C)N(CCn1c2c3ccccc3ccc2c2oc(=O)c3ccccc3c21)C(C)C | 98.7 | > 100 | > 100 | > 100 | > 100 µM | > 100 | > 100 | – | > 100 | – | – | – | – | – | – | – | – | – | – | –
Cc1ccc(NC(=O)CSc2nnc(-c3ccc(N=Cc4ccc(Cl)cc4)cc3)o2)cc1 | > 100 | – | > 100 | > 100 | – | > 100 | > 100 | > 100 µM | > 100 | – | – | – | – | – | – | – | – | – | – | –
O=Cc1ccc2c(c1-c1c(C=O)ccc3c1OCO3)OCO2 | > 100 | > 100 | > 100 | > 100 | > 100 µM | > 100 | > 100 | > 100 µM | > 100 | – | – | – | – | – | – | – | – | – | – | –
Cc1cc(NS(=O)(=O)c2ccc(Nc3c4ccccc4nc4c(C(=O)N5CCN(CCO)CC5)ccc(Cl)c34)cc2)no1 | > 100 | > 100 | > 100 | > 100 | > 100 µM | > 100 | > 100 | > 100 µM | – | – | – | – | – | – | – | – | – | – | – | –
Cc1cc(C)nc(NS(=O)(=O)c2ccc(NC(=O)c3cccc4c(Nc5ccc(S(N)(=O)=O)cc5)c5ccccc5nc34)cc2)n1 | 98.8 | 28.4 | 55.5 | 29.3 | 27.6 µM | > 100 | > 100 | > 95.9 µM | – | – | – | – | – | – | – | – | – | – | – | –
O=C1OCC2C1C1c3ccccc3C(O)c3ccccc3C21 (centres undefined) | > 100 | > 100 | > 100 | > 100 | > 100 µM | > 100 | > 100 | > 100 µM | > 100 | – | – | – | – | – | – | – | – | – | – | –
CC(=O)O[C@H]1CCC2[C@@H]3CCC4Nc5[nH]ncc5C[C@]4(C)C3CC[C@@]21C (some centres undefined) | > 100 | > 100 | > 100 | 58.6 | > 100 µM | > 100 | > 100 | 74.9 µM | – | – | – | – | – | – | – | – | – | – | – | –
CN1C(=O)/C(=C/c2c(Cl)n(C)c3ccccc23)c2ccccc21 | 8.96 | – | – | 0.756 | 5.17 µM and 2.76 µM | – | 3.94 | 6.51 µM and 3.46 µM | – | 4.34 | 7.07 | 1.88 µM and 0.245 µM | 2.05 µM and 1.45 µM | 5.49 | 1.53 | 2.1 µM and 1.96 µM | – | 2.99 | 3.46 µM and 2.42 µM | 9.29 µM and 5.34 µM
COc1cc2c3c(n(CCCOC(=O)C(F)(F)F)c(=O)c2cc1OC)-c1cc2c(cc1C3=O)OCO2 | < 0.0329 | > 100 | > 100 | – | 0.306 µM | 0.664 | 0.0158 | 1.24 µM | – | 0.555 | 0.159 | – | 0.0425 µM | – | < 0.01 | 0.402 µM | – | < 0.01 | 52.7 µM | > 100 µM
CN(CCO)c1ccc(N2Cc3ccccc3OC3=C2C(=O)c2c(O)ccc(O)c2C3=O)cn1 | 1.79 | 0.636 | 0.245 | 1.19 | 0.276 µM | 3.49 | 0.713 | 0.717 µM | – | 0.203 | 0.0833 | 0.135 µM | 0.111 µM | 0.307 | 0.227 | 0.267 µM | – | 0.508 | 0.418 µM | > 100 µM
